Experiments:
Format in all cases: cell-based
[1] = tested on: caspase 3/7 activity in HepG2 cells; assay: Apo-ONE Homogeneous Caspase-3/7 Assay, CDCA-induced apoptosis; conditions: for caspase-3/7 attenuation: HepG2 cells, CDCA 200 μM, 12 hours, 10 μM EPA, 10 μM DHA, or 5 μM EPA+5 μM DHA
Protocol: Cultured HepG2 cells were treated with 50, 100, or 200 μM CDCA in the presence and absence of 10 μM EPA, 10 μM DHA, or 5 μM EPA+5 μM DHA. Controls included cells incubated with vehicle alone (EtOH). Apoptosis was evaluated after 4, 8, 12, 18, and 24 hours using the Apo-ONE®
(§1) Homogeneous Caspase-3/7 Assay (Promega Corporation, Madison, Wis., United States of America). Specific apoptotic mediators (Fas and TRAIL-R2) were evaluated at 0.5, 1, 1.5, 2, and 4 hrs using quantitative real-time RT-PCR.
(§2) Experimental Design. HepG2 cells were plated and grown to 95% confluence for all experiments, except for fluorescent cell staining, where cells where grown to 50% confluence. Cells were treated with CDCA 50-200 mM (Sigma-Aldrich), ±EPA 1-10 μM (Nu-check Prep, Elysian, Minn., United States of America), and ±DHA 10 μM (Nu-check Prep). HepG2 cells were treated for 4, 8, 12, 18, 24 hours for cell viability and caspase assays. Cells were treated for 0.5, 1, 1.5, 2, 4 hour for mRNA analysis by quantitative real time RT-PCR.
Caspase assay. Apoptosis was evaluated using the Apo-ONE® Homogeneous Caspase-3/7 Assay purchased from Promega Corporation (Madison, Wis., United States of America) and performed according to the manufacturer's instructions. HepG2 cells were treated for 4, 8, 12, 18, 24 hours followed by the addition of caspase-3/7 reagent and incubation for 4 hours in the dark on a rocking shaker at low speed. Results were read at fluorescein 485 nm/535 nm with a Victor 2, Perkin-Elmer Wallace 1420 multilabel counter (Shelton, Conn., United States of America).

Fas mRNA in HepG2 cells = assay: Fas mRNA by quantitative real-time RT-PCR; conditions: HepG2 cells incubated with CDCA 200 μM alone; 0.5 hours; relative to vehicle control
Protocol: as §1
as §2, with “Cells were treated with CDCA 50-200 mM (Sigma-Aldrich), ±EPA 1-10 μM (Nu-check Prep, Elysian, Minn., United States of America), and ±DHA 10 μM (Nu-check Prep).” left out
Quantitative RT-PCR. Total RNA was isolated from confluent cultures according to manufacturer's instructions with TRIzol™ reagent (Invitrogen, Carlsbad, Calif., United States of America). First-strand cDNAs were synthesized from 2 μg of total RNA in a 21 μl reaction volume using the SuperScript™ First-Strand Synthesis System for RT-PCR (Invitrogen) in accordance with the manufacturer's instructions. Quantitative PCR was performed in triplicate using the Model 7500 Sequence Detection System (Applied Biosystems, Foster City, Calif., United States of America). […] The change in fluorescence of SYBR Green in every cycle was monitored by the system software, and the threshold cycle (CT) above the background for each reaction was calculated. […] The mRNA expression level relative to the calibrator was expressed as 2^−ΔΔCT.

[2] = Cell viability by trypan blue staining; conditions: human, HepG2 cells; 2 hour treatment with CDCA alone; trypan blue; read-out: viable cells
Protocol: as §2, with “HepG2 cells were treated for 4, 8, 12, 18, 24 hours for cell viability and caspase assays.” left out
(§3) Cell Viability. Cell viability was evaluated after treating cells, as described above, followed by trypsinization in order to disperse cells into a 0.2% trypan blue (Sigma-Aldrich) cell suspension mixture. After staining, 10 μL of cell suspension was placed on a hemocytometer with a glass cover slip and evaluated using an inverted microscope (25× magnification). All cells were counted and viability was accessed.

HepG2 cells [3] = assay: Nuclear staining with ethidium bromide/acridine orange; conditions: cells treated with the substance alone, 2 hours
Protocol: Nuclear staining. Cells were grown on glass inserts and once 50% confluence was achieved, cells were treated with CDCA±EPA for 2 hours. Immediately following treatment, cells were washed with phosphate buffered saline (PBS), fixed with methanol (−10° C.) for 15 minutes, then washed with PBS. Fixed cells were then stained for 5 minutes with ethidium bromide (100 μg/ml) and acridine orange (100 μg/ml) (EB/AO) dye mixture (Sigma-Aldrich) in PBS. Following staining, cells underwent 5 washes prior to being mounted on glass slides using VECTASHIELD® mounting medium and analyzed using an Olympus America Inc., IX50-FLA inverted reflected light fluorescence microscope (Lake Success, N.Y., United States of America).

[4] = tested on: pro-inflammatory cytokine (IL-6) mRNA in HepG2 cells; assay: IL-6 mRNA by quantitative RT-PCR; conditions: CDCA 200 uM, 2 hour incubation
Protocol: Quantitative RT-PCR. Total RNA was isolated from confluent cultures according to manufacturer's instructions with TRIzol™ reagent (Invitrogen, Carlsbad, Calif., United States of America). First-strand cDNAs were synthesized from 2 μg of total RNA in a 21 μl reaction volume using the SuperScript™ First-Strand Synthesis System for RT-PCR (Invitrogen) in accordance with the manufacturer's instructions. Quantitative PCR was performed in triplicate using the Model 7500 Sequence Detection System (Applied Biosystems, Foster City, Calif., United States of America). Independent PCRs were performed using the same cDNA for both the gene of interest and the 18S rRNA, using the SYBR Green PCR Master Mix (Applied Biosystems). Specific primers were designed for the genes of interest (Fas, TRAIL-R2, and IL-6). […] The change in fluorescence of SYBR Green in every cycle was monitored by the system software, and the threshold cycle (CT) above the background for each reaction was calculated. […] The mRNA expression level relative to the calibrator was expressed as 2^−ΔΔCT. […]
IL6 mRNA levels were measured by quantitative RT-PCR after a 2 hour incubation in a HepG2 cells. […] Statistical significance was determined using an ANOVA with Tukey's LSD. […] Statistical significance was determined using an ANOVA with Tukey's LSD.

HepG2 cells [5] = assay: Cell viability by trypan blue staining
Protocol: as §2, with “HepG2 cells were treated for 4, 8, 12, 18, 24 hours for cell viability and caspase assays.” left out
as §3

For C[C@H](CCC(=O)O)[C@H]1CC[C@H]2[C@@H]3[C@H](O)C[C@@H]4C[C@H](O)CC[C@]4(C)[C@H]3CC[C@]12C [CDCA, chenodeoxycholic acid], the “apoptotic effect of CDCA (caspase 3/7 activity)” value ([1]; CDCA 50-200 μM, across all time points (4-24 hours)) was “dose-dependent”, the “time of peak caspase activity” value ([1]; HepG2 cells treated with 200 μM CDCA) was 12 h and the “increase in Fas mRNA levels” value (Fas mRNA in HepG2 cells) was 4.7 fold. For the same compound, the viability at 2 h [2] was 88%, the “EB/AO nuclear staining appearance” value (HepG2 cells [3]) was “cellular integrity is lost” and the “pro-inflammatory cytokine (IL-6) mRNA expression” value [4] was “significantly increased”.
In the case of CC/C=C\C/C=C\C/C=C\C/C=C\C/C=C\C/C=C\CCC(=O)O [DHA, docosahexaenoic acid], the caspase-3/7 attenuation [1] is reported as 9%.
For CC/C=C\C/C=C\C/C=C\C/C=C\C/C=C\CCCC(=O)O [EPA, eicosapentaenoic acid], the caspase-3/7 attenuation [1] was 22%, the viable cells (HepG2 cells [5]; 2 hour treatment with CDCA and EPA, trypan blue) was 100% and the “total cell count relative to cells exposed to medium alone” value (HepG2 cells [5]; treatment with CDCA and EPA) was 75%.
